Assay results as given in publication PMC8606745 (Frontiers in Microbiology, 2021).
Where “and” joins values, the source holds several entries; their conditions need not be identical. Identical values can stand only once. Like-named read-outs stand apart in the source and are kept apart here. Square brackets hold non-standard residues; d marks the D form. Peptide text beside a SMILES is read from it. * marks the point of attachment. Hexanoyl = CCCCCC(=O)*

Tests used:
[1] = tested on: X. fastidiosa subsp. fastidiosa IVIA 5387.2; conditions: for Bimax (maximum biofilm inhibition): 50 µM
[2] = tested on: X. fastidiosa subsp. fastidiosa IVIA 5387.2
[3] = tested on: X. fastidiosa subsp. fastidiosa IVIA 5387.2; type: cell-based, Xylella fastidiosa
[4] = tested on: X. fastidiosa subsp. fastidiosa IVIA 5387.2; type: cell-based, Xylella fastidiosa; remark: listed apart in the source
[5] = tested on: X. fastidiosa subsp. multiplex IVIA 5901.2; type: cell-based, Xylella fastidiosa; conditions: 50 μM; strain IVIA 5901.2; OD595 crystal violet, 28°C, 5 days; three replicates of 10 wells ± confidence interval; listed as NAC
[6] = tested on: X. fastidiosa subsp. fastidiosa IVIA 5770; type: cell-based, Xylella fastidiosa; conditions: 50 μM; strain IVIA 5770; OD595 crystal violet, 28°C, 5 days; three replicates of 10 wells ± confidence interval; listed as NAC
[7] = tested on: X. fastidiosa subsp. pauca DD1; type: cell-based, Xylella fastidiosa; conditions: 50 μM; strain DD1; OD595 crystal violet, 28°C, 5 days; three replicates of 10 wells ± confidence interval; listed as NAC
[8] = tested on: X. fastidiosa subsp. fastidiosa Temecula (ATCC 700964); type: cell-based, Xylella fastidiosa; conditions: 50 μM; strain Temecula; OD595 crystal violet, 28°C, 5 days; three replicates of 10 wells ± confidence interval; listed as NAC
[9] = tested on: X. fastidiosa subsp. multiplex CFBP 8173; type: cell-based, Xylella fastidiosa; conditions: 50 μM; strain CFBP 8173; OD595 crystal violet, 28°C, 5 days; three replicates of 10 wells ± confidence interval; listed as NAC
Gram-negative bacteria [10] = conditions: cited from earlier work
Gram-negative bacteria [11] = conditions: cited from earlier work; remark: listed apart in the source
[12] = tested on: several X. fastidiosa strains; conditions: 12.5 μM; cited from earlier work

CC[C@H](C)[C@H](N)C(=O)N[C@@H](CC(C)C)C(=O)N1CCC[C@H]1C(=O)N[C@H](Cc1ccccc1)C(=O)N[C@@H](CCCCN)C(=O)N[C@H](Cc1ccccc1)C(=O)N1CCC[C@H]1C(=O)N[C@H](Cc1ccccc1)C(=O)N[C@H](Cc1ccccc1)C(=O)N1CCC[C@H]1C(=O)N[C@H](Cc1ccccc1)C(=O)N[C@@H](CCCNC(=N)N)C(=O)N[C@@H](CCCNC(=N)N)C(N)=O [BP525] (H-ILP[dF]K[dF]P[dF][dF]P[dF]RR-NH2)
ED50 (median effective dose, biofilm inhibition) [1]: 4.4 ± 1.3 µM | Bimax (maximum biofilm inhibition) [1]: 85.8% | Bactericidal activity: Reduction in viability (Log N0/N) [2]: 0.74 ± 0.06 Log N0/N | Biofilm formation Level (antibiofilm activity) [3]: High (key: High: high antibiofilm activity (ratio of biofilm formation from 0.01 to 0.2); Moderate: moderate activity (ratio from 0.29 to 0.47); Low: low activity (ratio from 0.72 to 0.77)) | Biofilm formation Ratio (treatment/NTC) [3]: 0.18 ± 0.01 | Planktonic cells Ratio (treatment/NTC) [3]: 1.83 ± 0.12

CCCCCC(=O)N[C@H](C(=O)N[C@@H](CC(C)C)C(=O)N1CCC[C@H]1C(=O)N[C@H](Cc1ccccc1)C(=O)N[C@@H](CCCCN)C(=O)N[C@H](Cc1ccccc1)C(=O)N1CCC[C@H]1C(=O)N[C@H](Cc1ccccc1)C(=O)N[C@H](Cc1ccccc1)C(=O)N1CCC[C@H]1C(=O)N[C@H](Cc1ccccc1)C(=O)N[C@@H](CCCNC(=N)N)C(=O)N[C@@H](CCCNC(=N)N)C(N)=O)[C@@H](C)CC [BP527] (Hexanoyl-ILP[dF]K[dF]P[dF][dF]P[dF]RR-NH2)
attached biofilm cells [4]: 12.5% | biofilm detached cells [4]: 45.7% | planktonic cells [4]: 41.7% | Bactericidal activity: Reduction in viability (Log N0/N) ([2]; 50 µM): 0.49 ± 0.04 Log N0/N | Biofilm formation Level (antibiofilm activity) ([3]; 50 µM): High (key: High: high antibiofilm activity (ratio of biofilm formation from 0.01 to 0.2); Moderate: moderate activity (ratio from 0.29 to 0.47); Low: low activity (ratio from 0.72 to 0.77)) | Biofilm formation Ratio (treatment/NTC) ([3]; 50 µM): 0.18 ± 0.02 | Planktonic cells Ratio (treatment/NTC) ([3]; 50 µM): 0.58 ± 0.12 | Hemolysis (horse erythrocytes; 150 µM): 62.2 ± 4.4% | Hemolysis (horse erythrocytes; 250 µM): 73.6 ± 1.1% | Hemolysis (horse erythrocytes; 375 µM): 100.0 ± 2.6%

CC(=O)N[C@@H](CS)C(=O)O [N-Acetyl-L-cysteine, N-acetyl-L-cysteine]
Biofilm formation (Ratio T/NTC) [5]: 1.00 ± 0.04 days | Biofilm formation (Ratio T/NTC) [6]: 0.97 | Bactericidal activity: Level ([2]; 50 µM, class by Duncan's test groups): Very low (very low activity with less than 0.3 log) | Bactericidal activity: Reduction in viability (Log N0/N) ([2]; 50 µM, contact test 3 h at room temperature in SCP buffer, v-qPCR with PMAxx, N0 = 10^7 CFU/mL non-treated control, mean of three replicates ± confidence interval (α=0.05)): 0.12 ± 0.01 Log N0/N | Biofilm formation (Ratio T/NTC) [7]: 0.42 and 0.42 ± 0.05 a | Biofilm formation Level (antibiofilm activity) ([3]; 50 µM): Low (low activity (ratio from 0.72 to 0.77)) | Planktonic cells Ratio (treatment/NTC) ([3]; 50 µM, OD600 treated / non-treated, PD3, 96-well, 28°C, 5 days, 120 rpm, three replicates of 10 wells ± confidence interval (α=0.05)): 1.71 ± 0.03 | Biofilm formation Ratio (treatment/NTC) ([3]; 50 µM, crystal violet OD595 treated / non-treated, PD3, 96-well, 28°C, 5 days, 120 rpm, three replicates of 10 wells ± confidence interval (α=0.05)): 0.72 ± 0.01 | Biofilm formation (Ratio T/NTC) ([3]; 50 μM, strain IVIA 5387.2, OD595 crystal violet, 28°C, 5 days, three replicates of 10 wells ± confidence interval, listed as NAC): 0.72 and 0.72 ± 0.01 b | Hemolysis (horse erythrocytes; 150 µM): 0.5 ± 0.9% | Hemolysis (horse erythrocytes; 250 µM): 0.7 ± 1.1% | Hemolysis (horse erythrocytes; 375 µM): 1 ± 2% | Biofilm formation (Ratio T/NTC) [8]: 0.94 ± 0.02 c | Biofilm formation (Ratio T/NTC) [9]: 0.99

CC[C@H](C)[C@H](NC(=O)[C@H](CCCNC(=N)N)NC(=O)[C@H](Cc1c[nH]c2ccccc12)NC(=O)[C@H](CCC(N)=O)NC(=O)[C@@H](N)C(C)C)C(=O)N[C@@H](CCCNC(=N)N)C(=O)N[C@H](C(=O)N[C@@H](CCCNC(=N)N)C(=O)N[C@H](C(=O)N[C@H](C(=O)N[C@@H](CCCCN)C(=O)N[C@@H](CCCCN)C(N)=O)[C@@H](C)CC)C(C)C)C(C)C [Peptide 1026] (H-VQWRIRVRVIKK-NH2)
attached biofilm cells [4]: 0.7% | biofilm detached cells [4]: 19.8% | planktonic cells [4]: 79.5% | Bactericidal activity: Reduction in viability (Log N0/N) [2]: 1.03 ± 0.07 Log N0/N | Biofilm formation Level (antibiofilm activity) [3]: High (key: High: high antibiofilm activity (ratio of biofilm formation from 0.01 to 0.2); Moderate: moderate activity (ratio from 0.29 to 0.47); Low: low activity (ratio from 0.72 to 0.77)) | Planktonic cells Ratio (treatment/NTC) [3]: 2.10 ± 0.05

CC[C@H](C)[C@H](NC(=O)[C@H](CCCNC(=N)N)NC(=O)[C@H](Cc1ccccc1)NC(=O)[C@H](CCCNC(=N)N)NC(=O)[C@@H](N)CCCCN)C(=O)N[C@@H](CCCNC(=N)N)C(=O)N[C@H](C(=O)N[C@@H](CCCNC(=N)N)C(=O)N[C@H](C(N)=O)C(C)C)C(C)C [Peptide 1037] (H-KRFRIRVRV-NH2)
ED50 (median effective dose, biofilm inhibition) [1]: 4.2 ± 2.4 µM | Bactericidal activity: Reduction in viability (Log N0/N) [2]: 0.84 ± 0.09 Log N0/N | Biofilm formation Level (antibiofilm activity) [3]: High (key: High: high antibiofilm activity (ratio of biofilm formation from 0.01 to 0.2); Moderate: moderate activity (ratio from 0.29 to 0.47); Low: low activity (ratio from 0.72 to 0.77)) | Biofilm formation Ratio (treatment/NTC) [3]: 0.15 ± 0.00 | Planktonic cells Ratio (treatment/NTC) [3]: 1.67 ± 0.05

CC[C@H](C)[C@H](NC(=O)[C@H](CCCCN)NC(=O)[C@H](CCCCN)NC(=O)[C@H](CC(C)C)NC(=O)[C@@H](NC(=O)[C@H](CCCNC(=N)N)NC(=O)[C@@H](NC(=O)[C@H](CCCNC(=N)N)NC(=O)[C@@H](NC(=O)[C@H](CCCNC(=N)N)NC(=O)[C@H](Cc1ccccc1)NC(=O)[C@H](CC(C)C)NC(=O)[C@H](CCCNC(=N)N)NC(=O)[C@H](CCCNC(=N)N)NC(=O)[C@H](Cc1ccccc1)NC(=O)[C@@H](N)CCCNC(=N)N)[C@@H](C)CC)C(C)C)C(C)C)C(N)=O [R-FV7-I16] (H-RFRRLFRIRVRVLKKI-NH2; N-terminus assumed)
ED50 (median effective dose, biofilm inhibition) [1]: 6.3 ± 3.7 µM | Bimax (maximum biofilm inhibition) [1]: 90.6% | Bactericidal activity: Reduction in viability (Log N0/N) ([2]; 50 µM): 0.39 ± 0.01 Log N0/N | Described activity: Antibiofilm (Gram-negative bacteria [10]): Ec, Pa | Biofilm formation Level (antibiofilm activity) ([3]; 50 µM): High (key: High: high antibiofilm activity (ratio of biofilm formation from 0.01 to 0.2); Moderate: moderate activity (ratio from 0.29 to 0.47); Low: low activity (ratio from 0.72 to 0.77)) | Biofilm formation Ratio (treatment/NTC) ([3]; 50 µM): 0.10 ± 0.01 | Planktonic cells Ratio (treatment/NTC) ([3]; 50 µM): 1.70 ± 0.12 | Hemolysis (horse erythrocytes; 150 µM): 6.3 ± 0.3% | Hemolysis (horse erythrocytes; 250 µM): 8.0 ± 1.3% | Hemolysis (horse erythrocytes; 375 µM): 9.7 ± 0.6% | Described activity: Antibacterial (Gram-negative bacteria [11]): Ec, Pa, Se

BP178
reduction in viability [12]: approximately 3.6 log
